In brackets after ≈: the same amount, converted by molar mass. Like-named read-outs stand apart in the source and are kept apart here.
Legend:
[1] = tested on: S. saprophyticus ATCC 15305; assay: MIC broth microdilution (NCCLS); format: cell-based, Staphylococcus saprophyticus; conditions: Staphylococcus saprophyticus, ATCC15305; S. saprophyticus ATCC 15305; read-out: MIC
In short: (§1)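 NCCLS broth microdilution; inoculum 10^5-10^6 CFU/ml; 2-fold serial dilutions; 35° C, 24 h; A650 plus visual read. Media: MHBCA (S. saprophyticus, E. faecium), MHBCA + 2% laked horse blood (Listeria), HTM (Haemophilus), the last two under 5% CO2.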

[2] = tested on: B. catarrhalis ATCC 8176; assay: MIC broth microdilution (NCCLS), fastidious bacteria; format: cell-based, Branhamella (Moraxella) catarrhalis; conditions: Moraxella catarrhalis, ATCC8176, HTM, 5% CO2
In short: (§2)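 Susceptibility by NCCLS microdilution: checked inoculum 10^5-10^6 CFU/ml, 24 h at 35° C, and growth assessed at 650 nm and by eye. Haemophilus was tested in HTM medium and Listeria with laked horse blood, each incubated under 5% CO2.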

[3] = tested on: E. faecalis ATCC 29212; assay: MIC broth microdilution (NCCLS); format: cell-based, Enterococcus faecalis; conditions: Enterococcus faecalis, ATCC29212; E. faecalis ATCC 29212; read-out: MIC
[4] = tested on: E. faecium ATCC 35667; assay: MIC broth microdilution (NCCLS); format: cell-based, Enterococcus faecium; conditions: Enterococcus faecium, ATCC35667, E. faecium ATCC 35667; read-out: MIC
In short: as §1

[5] = tested on: E. coli MC4100; assay: MIC broth microdilution (NCCLS); format: cell-based; conditions: Escherichia coli; E. coli MC4100, pathotype Reference
Procedure: (§3) Minimal Inhibitory Concentration (MIC) Determination. Bacteria (primary strain panel, TABLE 1). Susceptibility tests were performed following the recommendations from the National Committee for Clinical Standards (NCCLS). The MICs were determined by a broth microdilution technique using a final volume of 100 μl of cation-adjusted Mueller Hinton Broth (MHBCA) and a bacterial inoculum of 10^5-10^6 Colony Forming Units (CFU)/ml. The inocula were verified and precisely determined by applying 10-μl drops of 10-fold dilutions onto Triptic Soy Agar plates. The CFU were counted after an incubation of 24 h at 35° C. Any experiment showing an inoculum that was more or less than 10^5-10^6 CFU/ml was rejected. Control antibiotics and test compounds were prepared at a concentration equivalent to 2-fold the highest desired final concentration. Compounds were then diluted directly in the 96-well microtiter plates by serial 2-fold dilutions using a multichannel pipette. Microtiter plates were incubated during 24 h at 35° C. and growth was recorded by using a microtiterplate reader at 650 nm as well as by visual observation. The MIC was defined as the lowest concentration of compound yielding no visible growth. […] Fastidious bacteria. The medium used for Listeria monocytogenes, Neisseria meningitidis, and Campylobacter jejuni was MHBCA containing 2% laked horse blood. The medium used for Haemophilus influenzae and Branhamella (Moraxella) catarrhalis was HTM as recommended by the NCCLS. Cultures of these fastidious bacteria were incubated at 35° C. in a 5% CO2 atmosphere. […] The medium used for Bacteroides fragilis was Wilkins Chalgren broth and growth was allowed under an anaerobic atmosphere at 35° C. for 48 hours.

[6] = tested on: S. aureus ATCC 29213; assay: MIC broth microdilution (NCCLS); format: cell-based, Staphylococcus aureus; conditions: Staphylococcus aureus, ATCC29213; S. aureus ATCC 29213; read-out: MIC
[7] = tested on: S. aureus MRSA COL; assay: MIC broth microdilution (NCCLS); format: cell-based, Staphylococcus aureus; conditions: Staphylococcus aureus, MRSA, S. aureus MRSA COL; read-out: MIC
In short: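 Inocula of 10^5-10^6 CFU/ml were checked by colony counts, and out-of-range runs were rejected. Test compounds underwent serial 2-fold dilution in cation-adjusted Mueller Hinton broth and were incubated for 24 h at 35° C. The MIC was the lowest concentration without visible growth.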

[8] = tested on: H. influenzae ATCC 49766; assay: Minimal Bactericidal Concentration (MBC); format: cell-based; conditions: Haemophilus influenzae, ATCC49766, 99.9% killing
In short: (§4)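 After MIC reading, samples from each clear microtiter well (at least 5 wells without visible growth) were plated on TSA for viable counts. Plates were incubated at 35° C. for exactly 24 h and colonies counted.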

[9] = tested on: H. influenzae ATCC 49247; assay: Minimal Bactericidal Concentration (MBC); format: cell-based; conditions: Haemophilus influenzae, ATCC49247, 99.9% killing
In short: as §4

[10] = tested on: S. epidermidis ATCC 12228; assay: MIC broth microdilution (NCCLS); format: cell-based, Staphylococcus epidermidis; conditions: Staphylococcus epidermidis, ATCC12228; S. epidermidis ATCC 12228; read-out: MIC
In short: as §2

[11] = tested on: E. coli d4-OLR-pen10 (O157:H7); assay: MIC broth microdilution, E. coli strains; format: cell-based; conditions: Escherichia coli
Procedure: as §3
(§5) Finally, compounds were also tested against populations of various clinical strains (antibiotic resistant strain panel, TABLE 1).

[12] = tested on: E. coli Ec117c (EIEC); assay: MIC broth microdilution, E. coli strains; format: cell-based; conditions: Escherichia coli, pathotype EIEC
Procedure: as §3, §5

[13] = tested on: E. coli Ec119c (EIEC); assay: MIC broth microdilution, E. coli strains; format: cell-based; conditions: Escherichia coli, pathotype EIEC
Procedure: as §3, §5

[14] = tested on: E. coli Ec027c (EIEC); assay: MIC broth microdilution, E. coli strains; format: cell-based; conditions: Escherichia coli, pathotype EIEC
Procedure: as §3, §5

[15] = tested on: E. coli d25-ALR-pen14 (O157:H7); assay: MIC broth microdilution, E. coli strains; format: cell-based; conditions: Escherichia coli
Procedure: as §3, §5

[16] = tested on: E. coli Ec118c (EIEC); assay: MIC broth microdilution, E. coli strains; format: cell-based; conditions: Escherichia coli, pathotype EIEC
Procedure: as §3, §5

[17] = tested on: E. coli ATCC 35150 (O157:H7); assay: MIC broth microdilution, E. coli strains; format: cell-based; conditions: Escherichia coli, ATCC35150
Procedure: as §3, §5

[18] = tested on: E. coli Ec022c (EIEC); assay: MIC broth microdilution, E. coli strains; format: cell-based; conditions: Escherichia coli, pathotype EIEC
Procedure: as §3, §5

[19] = tested on: B. catarrhalis ATCC 8176; assay: Minimal Bactericidal Concentration (MBC); format: cell-based, Branhamella (Moraxella) catarrhalis; conditions: Moraxella catarrhalis, ATCC8176, 99.9% killing
Procedure: Minimal Bactericidal Concentration (MBC). After the microtiter plates were read for the determination of the MIC, a 10-μl sample of each clear well (at least 5 wells without visible growth) was applied onto TSA plates for viable counts determination.
Petri dishes were incubated at 35° C. for exactly 24 h and bacterial colonies were counted.

[20] = tested on: H. influenzae ATCC 49766; assay: MIC broth microdilution (NCCLS), fastidious bacteria; format: cell-based; conditions: Haemophilus influenzae, ATCC49766, HTM, 5% CO2
In short: as §2

[21] = tested on: H. influenzae ATCC 49247; assay: as above; format: cell-based; conditions: Haemophilus influenzae, ATCC49247, HTM, 5% CO2
In short: as §2

[22] = tested on: E. coli ATCC 25922; assay: MIC broth microdilution (NCCLS); format: cell-based, Escherichia coli

For CC1(C)S[C@@H]2[C@H](NC(=O)[C@H](N)c3ccccc3)C(=O)N2[C@H]1C(=O)O [Ampicillin], which MIC [1] is on record?
Its MIC is 0.12 µg/mL (≈ 0.343 µM).

What about the MIC [2] of the same compound?
The MIC was at most 0.03 µg/mL.

And the MIC [3]?
Its MIC is 1 µg/mL (≈ 2.86 µM).

And the MIC [4]?
The MIC was 1 µg/mL (≈ 2.86 µM).

What about the MIC [5] of the same compound?
Its MIC is 4 µg/mL (≈ 11.4 µM).

What about the MIC [6] of the same compound?
Its MIC is 1 to 2 µg/mL (≈ 2.86 to 5.72 µM).

And the MIC [7]?
Its MIC is 8 µg/mL (≈ 22.9 µM).

What about the MBC [8] of the same compound?
Its MBC is at most 0.12 µg/mL.

And the MBC [9]?
Its MBC is 4 µg/mL (≈ 11.4 µM).

And the MIC [10]?
The MIC was 64 µg/mL (≈ 183 µM).

And the MIC [11]?
Its MIC is 2 to 4 µg/mL (≈ 5.72 to 11.4 µM).

What about the MIC [12] of the same compound?
The MIC was 16 µg/mL (≈ 45.8 µM).

And the MIC [13]?
Its MIC is over 64 µg/mL.

And the MIC [14]?
The MIC was over 64 µg/mL.

What about the MIC [15] of the same compound?
The MIC was 2 to 4 µg/mL (≈ 5.72 to 11.4 µM).

What about the MIC [16] of the same compound?
The MIC was over 64 µg/mL.

And the MIC [17]?
Its MIC is 2 µg/mL (≈ 5.72 µM).

What about the MIC [18] of the same compound?
Its MIC is over 64 µg/mL.

And the MBC [19]?
The MBC was at most 0.03 µg/mL.

What about the MIC [20] of the same compound?
Its MIC is at most 0.12 µg/mL.

And the MIC [21]?
The MIC was 2 to 4 µg/mL (≈ 5.72 to 11.4 µM).

And the MIC ([22]; E. coli ATCC 25922 (Reference))?
Its MIC is 4 µg/mL (≈ 11.4 µM).

And the MIC ([22]; Escherichia coli, ATCC25922, E. coli ATCC 25922 (Reference), read-out: MIC)?
Its MIC is 4 to 8 µg/mL (≈ 11.4 to 22.9 µM).

Which melting point does the source give for O=[N+]([O-])c1ccc(C=Cc2nc(Nc3cccc(O)c3)c3cc(F)ccc3n2)o1 [VI, 6-fluoro-2-[2-(5-nitro-2-furyl)vinyl]-4-(m-hydroxyanilino)-quinazoline] here?
Its melting point is 241 to 242 °C (dec.).
